The assay deals with T1, human CRF receptors (Homo sapiens, UniProt P34998).
T1 construct: expressed in transfected cells
T1 sequence (P34998 24-415): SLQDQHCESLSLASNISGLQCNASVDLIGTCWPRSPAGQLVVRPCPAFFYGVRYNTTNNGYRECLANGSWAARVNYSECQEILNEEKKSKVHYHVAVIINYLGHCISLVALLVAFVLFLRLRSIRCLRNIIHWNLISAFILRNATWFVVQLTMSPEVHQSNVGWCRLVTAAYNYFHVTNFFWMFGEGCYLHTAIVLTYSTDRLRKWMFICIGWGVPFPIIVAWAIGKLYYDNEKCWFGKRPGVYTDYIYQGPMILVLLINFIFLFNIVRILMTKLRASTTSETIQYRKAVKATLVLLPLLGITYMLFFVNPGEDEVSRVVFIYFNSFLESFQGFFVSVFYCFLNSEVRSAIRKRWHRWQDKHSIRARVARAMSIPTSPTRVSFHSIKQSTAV
Nature of the assay: standard radioligand binding assay: displacement of radiolabeled CRF ligand from the CRF receptor. The following applies: Table 7 title: Ki ≤ 250 nM; cells stably transfected with human CRF receptors; [125I]tyrosine-ovine CRF ~200 pM; 2 hours at 22° C. From the text:
The effectiveness of a compound as a CRF receptor antagonist may be determined by various assay methods. Suitable CRF antagonists of this invention are capable of inhibiting the specific binding of CRF to its receptor and antagonizing activities associated with CRF. A compound of structures I through VI may be assessed for activity as a CRF antagonist by one or more generally accepted assays for this purpose, including (but not limited to) the assays disclosed by DeSouza et al. (J. Neuroscience 7:88, 1987) and Battaglia et al. (Synapse 1:572, 1987). […] CRF receptor affinity may be determined by binding studies that measure the ability of a compound to inhibit the binding of a radiolabeled CRF (e.g., [^125 I]tyrosine-CFR) to its receptor (e.g. receptors prepared from rat cerebral cortex membranes). The radioligand binding assay described by DeSouza et al. (supra, 1987) provides an assay for determining a compound's affinity for the CRF receptor. Such activity is typically calculated from the IC50 as the concentration of a compound necessary to displace 50% of the radiolabeled ligand from the receptor, and is reported as a "Ki " value calculated by the following equation: [formula] where L=radioligand and KD =affinity of radioligand for receptor (Cheng and Prusoff, Biochem. Pharmacol. 22:3099, 1973).
Compounds were evaluated for binding activity to the CRF receptor by a standard radioligand binding assay as generally described by DeSouza et al. (J. Neurosci. 7:88-100, 1987). By utilizing various radiolabeled CRF ligands, the assay may be used to evaluate the binding activity of the compounds of the present invention with any CRF receptor subtype. Briefly, the binding assay involves the displacement of a radiolabeled CRF ligand from the CRF receptor.
More specifically, the binding assay was performed in 1.5 ml Eppendorf tubes using approximately 1×10^6 cells per tube stably transfected with human CRF receptors. Each tube received about 0.1 ml of assay buffer (e.g., Dulbecco's phosphate buffered saline, 10 mM magnesium chloride, 20 μM bacitracin) with or without unlabeled sauvagine, urotensin I or CRF (final concentration, 1 μM) to determine nonspecific binding, 0.1 ml of [^125 ] tyrosine--ovine CRF (final concentration ~200 pM or approximately the KD as determined by Scatchard analysis) and 0.1 ml of a membrane suspension of cells containing the CRF receptor. The mixture was incubated for 2 hours at 22° C. followed by the separation of the bound and free radioligand by centrifugation. Following two washes of the pellets, the tubes were cut just above the pellet and monitored in a gamma counter for radioactivity at approximately 80% efficiency. All radioligand binding data was analyzed using the non-linear least-square curve-fitting program LIGAND of Munson and Rodbard (Anal. Biochem. 107:220, […]).
Binding activity corresponds to the concentration (nM) of the compound necessary to displace 50% of the radiolabeled ligand from the receptor.

In the case of `CCCN(c1nccc(-c2ccc(OC)cc2C)n1)C(C1CC1)C1CC1` [II-43], the inhibition constant (Ki) is at most 250 nM. Regarding `CCCN(c1ncc(C)c(-c2ccc(Cl)cc2OC)n1)C(C1CC1)C1CC1` [II-32], the Ki is at most 250 nM.

`CCCN(c1nccc(-c2c(OC)cc(OC)cc2OC)n1)C(C1CC1)C1CC1` [II-22, 2-(N-dicyclopropylmethyl-N-propylamino)-4-(2',4',6'-trimethoxyphenyl)pyrimidine] gave a Ki of at most 250 nM.

With `CCCN(c1nccc(-c2c(C)cc(C)cc2C)n1)C(C1CC1)C1CC1` [II-24], the Ki was at most 250 nM. `CCCN(c1ncc(C)c(-c2ccc(Cl)cc2)n1)C(C1CC1)C1CC1` [II-7] gave a Ki of at most 250 nM. `CCCN(c1nc(N)nc(-c2c(Cl)cc(Cl)cc2Cl)n1)C(C1CC1)C1CC1` [IV-2, 2-(2',4',6'-trichlorophenyl)-4-(N-dicyclopropylmethyl-N-propylamino)-6-aminotriazine] showed a Ki of at most 250 nM. Take `CCCN(c1nccc(-c2c(Cl)cc(Cl)cc2Cl)n1)C(C1CC1)C1CC1` [II-11, 2-(N-dicyclopropylmethyl-N-propylamino)-4-(2',4',6'-trichlorophenyl)-pyrimidine]: the Ki is at most 250 nM. `CCCN(c1ncc(C)c(-c2c(OC)cc(OC)cc2OC)n1)C(C1CC1)C1CC1` [II-25] registered a Ki of at most 250 nM. Then `CCCN(c1nc(N)nc(-c2ccc(Cl)cc2Cl)n1)C(C1CC1)C1CC1` [IV-7], with at most 250 nM; and `CCCN(c1nccc(-c2c(OC)cc(Cl)cc2OC)n1)C(C1CC1)C1CC1` [II-35], with at most 250 nM.

In turn, `CCCN(c1nccc(-c2c(OC)cccc2OC)n1)C(C1CC1)C1CC1` [II-23, 2-(N-dicyclopropylmethyl-N-propyl)-4-(2',6'-dimethoxyphenyl)pyrimidine] registered an inhibitory constant (Ki) of at most 250 nM. Consider `CCCN(c1ncc(C)c(-c2ccc(OC)cc2OC)n1)C(C1CC1)C1CC1` [II-39], for which the Ki is at most 250 nM. Then `CCCN(c1ncc(C)c(-c2ccc(Br)cc2)n1)C(C1CC1)C1CC1` [II-16, 2-(N-dicyclopropylmethyl-N-propylamino)-4-(4'-bromophenyl)-5-methylpyrimidine], with at most 250 nM; and `CCCN(c1ncnc(-c2ccc(Cl)cc2Cl)n1)C(C1CC1)C1CC1` [IV-8, 2-(N-dicyclopropylmethyl-N-propylamino)-4-(2',4'-dichlorophenyl)triazine], with at most 250 nM.

Source of the values: patent US5795905A, “CRF receptor antagonists and methods relating thereto” (Neurocrine Biosciences, Inc., priority 1995, dated 1998).
